In US20250346943A1, “DEGRADER COMPOUNDS OF QSOX1 mRNA” (UNIVERSITY OF FLORIDA RESEARCH FOUNDATION, INCORPORATED, priority 2022, published 2025):

What was measured:
[1] = test system: mutant RNA lacking U-bulge (fully paired RNA); assay: In vitro binding by fluorescence polarization, Cy5-labeled mutant RNA
Experimental: (§1) In Vitro Binding by Measuring Changes in Fluorescence Polarization. Cy5-labeled RNA was folded by heating at 95° C. for 2 min in 1× Folding Buffer and cooled on ice. Serial dilutions of F1 (200 to 0.4 μM, 1:1 dilutions) were prepared in 1× Folding Buffer with 4% (w/v) bovine serum albumin (BSA) with constant DMSO concentration (2% v/v). The compound solutions (10 μL) were added to a well of non-binding 384-well plate (Corning). An equal volume of folded RNA was adding to each well with a final concentration of 50 nM. The samples were incubated at room temperature for 30 min, and then fluorescence polarization was measured with a Molecular Devices SpectraMax M5 plate reader with an excitation wavelength of 640 nm and an emission wavelength of 680 nm.

human transcriptome = assay: Chem-CLIP-Map-Seq transcriptome-wide target profiling in live MDA-MB-231 cells; type: cell-based; details: 20 μM, 16 h
Experimental: Additional studies were performed in live MDA-MB-231 cells to profile the cellular targets as well as the small molecule binding site within them, via Chem-CLIP-Map-Seq,^21 which had not previously been applied transcriptome-wide. After treatment (20 μM; 16 h) and cross-linking, total RNA was harvested and fragmented prior to pull-down (FIG. 2A). Random fragmentation was completed first to: 1) reduce sequence bias in library preparation, 2) reduce background signal in the RNA-seq analysis; and 3) allow for only the regions bound by the small molecules to be pulled down rather than the entire transcript, identifying both the target and the binding site within it. In parallel, a control diazirine probe that lacks an RNA-binding functionality (FIG. 2B) was used to identify targets that non-specifically react with the cross-linking moiety, where cross-linking is not driven by the RNA-binding elements.
Genrich uses a null model with a log-normal distribution to calculate p values by comparing sequencing runs of the same RNA sample before and after pull-down.
Chemical-Cross-linking and Isolation by Pull-down (Chem-CLIP) in Live Cells. MDA-MB-231 cells were seeded in 60 mm dishes and allowed to reach ˜80% confluency. The cells were then treated with 20 μM of compound in growth medium and incubated for 16 h. Cells were washed with 1×DPBS and irradiated with UV light for 10 min. Total RNA was harvested using a Zymo Quick-RNA Miniprep Kit per the manufacturer's protocol with DNase treatment. Total RNA was chemically fragmented by using an NEBNext Magnesium RNA Fragmentation Module (E6150S) per manufacturer's protocol to achieve final lengths between 100-150 nucleotides Pull-down of cross-linked RNAs was performed by adding 10 μg of total RNA to 100 μL of azide-disulfide agarose beads (Click Chemistry Tools, 1238-2) pre-washed with 25 mM HEPES, pH 7.0. The click reaction and pull-down were completed as described in “In Vitro Chemical-Crosslinking and Isolation by Pull-down (Chem-CLIP) with Fluorescently Labeled RNA”. The pulled down RNA was purified by RNA CleanXP beads (Beckman, A66514) per manufacturer's protocol.
RNA-seq Library Preparation and Data Analysis. The quality of the pulled down RNA was analyzed by using an Agilent 2100 Bioanalyzer RNA nanochip as well as to confirm fragment lengths. RNA concentration was quantified by Qubit 2.0 Fluorometer (Invitrogen). The input RNA (200 ng) was depleted of ribosomal RNA with NEBNext rRNA Depletion Module (E6310) according to manufacturer's recommendations. Library preparation was performed with NEBNext Ultra II Directional RNA kit (E7760) per manufacturer's protocols. Briefly, the rRNA-depleted samples were reverse transcribed with random hexamer primers to generate first strand cDNA, followed by second strand synthesis with dUTP instead of dTTP. The cDNA was end repaired and adenylated at their 3′ ends, followed by adaptor ligation. The strand information of the RNA was preserved by using USER enzyme (Uracil-specific excision reagent) to degrade the second strand. The cDNA was then PCR amplified with barcoded Illumina-compatible primers to generate the final libraries. These libraries were loaded into a NextSeq 500 v2.5 flow cell and sequenced with 2×40 bp paired-end chemistry. All fastq files were aligned to the human genome by STAR.^9 The output bam files were processed by Genrich (v0.6.1, available at https://github.com/jsh58/Genrich) for peak calling to identify regions of enrichment (p<0.001 and False Discovery Rate=1%). Fold enrichment was calculated by Deeptool^10 and visualized by IGV browser.^11 A minimum read count of 5 and a minimum fold enrichment of 1.5 were applied filter to filter out low-confidence peaks.

[2] = target: QSOX1 5′UTR hairpin (model of the QSOX1-a binding site); assay: In vitro binding by fluorescence polarization, Cy5-labeled WT RNA; parameters: species or system human
Experimental: as §1

MDA-MB-231 TBNC cells = assay: Viability of MDA-MB-231 cells; type: cell-based, human; parameters: dose or concentration left out as unconfirmed; details: the highest dose

SMILES | binding to fully paired RNA (U bulge converted to AU base pair) [1] | largest enrichments (two transcripts) (human transcriptome) | number of transcripts enriched after eliminating transcripts also bound by the control diazirine (human transcriptome) | Kd [2] | effect on viability (MDA-MB-231 TBNC cells)
C#CCCC1(CCC(=O)N(C)[C@H]2CC[C@@H](c3ccc(Cl)c(Cl)c3)c3ccccc32)N=N1 [Compound F1] | no detectable binding | > 12 fold | 51 |  | 
CCOC(=O)C1=C(Nc2ccccc2)S/C(=C\c2ccc(OCCOCCOCCOCCNC(=O)CCC(=O)N(C)[C@H]3CC[C@@H](c4ccc(Cl)c(Cl)c4)c4ccccc43)c(O)c2)C1=O [Compound F1-RIBOTAC] |  |  |  | 11 ± 5 µM | no effect on viability
